Laboratory results: ChEMBL document CHEMBL1201862, “PubChem BioAssay data set” (2004)
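Test compounds were applied to cells in 96-well plates for 48 hours at 5 doses. GI50: concentration for 50% inhibition of growth.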 Activity calls are given as the source filed them. No stated cut-off is given here; in the data, active = GI50 up to about 1.1 µM and inactive = higher.

Experiments:
Test in all cases: inhibition of tumour cell growth, NCI panel, 48 h
[1] = test system: CAKI-1
[2] = test system: UACC-62
[3] = test system: OVCAR-5
[4] = test system: UACC-257
[5] = test system: 786-0
[6] = test system: SF-295
[7] = test system: ACHN
[8] = test system: TK-10
[9] = test system: HCT-15
[10] = test system: MDA-N
[11] = test system: SN12C
[12] = test system: SK-MEL-5
[13] = test system: SW-620
[14] = test system: CCRF-CEM
[15] = test system: NCI-H23
[16] = test system: M14
[17] = test system: MCF7
[18] = test system: NCI-H522
[19] = test system: OVCAR-4
[20] = test system: A498
[21] = test system: HOP-62
[22] = test system: SF-268
[23] = test system: HCC 2998
[24] = test system: EKVX
[25] = test system: MDA-MB-231
[26] = test system: SNB-19
[27] = test system: RXF 393
[28] = test system: MDA-MB-435
[29] = test system: RPMI-8226
[30] = test system: SK-OV-3
[31] = test system: IGROV-1
[32] = test system: Hs-578T
[33] = test system: DU-145
[34] = test system: LOX IMVI
[35] = test system: OVCAR-8
[36] = test system: OVCAR-3
[37] = test system: HT-29
[38] = test system: A549
[39] = test system: HOP-92
[40] = test system: SR
[41] = test system: PC-3
[42] = test system: HL-60
[43] = test system: HCT-116
[44] = test system: KM12
[45] = test system: SK-MEL-28
[46] = test system: MOLT-4
[47] = test system: UO-31
[48] = test system: BT-549
[49] = test system: SNB-75
[50] = test system: COLO 205
[51] = test system: NCI/ADR-RES
[52] = test system: NCI-H226
[53] = test system: SK-MEL-2
[54] = test system: U-251
[55] = test system: K562
[56] = test system: SF-539
[57] = test system: NCI-H460
[58] = test system: T47D
[59] = test system: Malme-3M

CN(C)c1ccc(C=c2c3cc(O)ccc3n3c2cc(-c2ccccc2)[n+]3C)cc1
GI50 [1]: 8.63 µM (inactive) | GI50 [2]: 1.36 µM (inactive) | GI50 [3]: 4.82 µM (inactive) | GI50 [4]: 1.08 µM (active) | GI50 [5]: 1.09 µM (active) | GI50 [6]: 3.78 µM (inactive) | GI50 [7]: 7.78 µM (inactive) | GI50 [8]: 3.72 µM (inactive) | GI50 [9]: 18 µM | GI50 [10]: 0.67 µM (active) | GI50 [11]: 0.33 µM (active) | GI50 [12]: 0.78 µM (active) | GI50 [13]: 1.22 µM (inactive) | GI50 [14]: 0.656 µM (active) | GI50 [15]: 1.08 µM (active) | GI50 [16]: 1.51 µM (inactive) | GI50 [17]: 0.692 µM (active) | GI50 [18]: 0.337 µM (active) | GI50 [19]: 3.28 µM (inactive) | GI50 [20]: 4.47 µM (inactive) | GI50 [21]: 1.81 µM (inactive) | GI50 [22]: 0.446 µM (active) | GI50 [23]: 2.22 µM (inactive) | GI50 [24]: 1.96 µM (inactive) | GI50 [25]: 1.04 µM (active) | GI50 [26]: 0.369 µM (active) | GI50 [27]: 1.53 µM (inactive) | GI50 [28]: 0.964 µM (active) | GI50 [29]: 0.282 µM (active) | GI50 [30]: 3.08 µM (inactive) | GI50 [31]: 0.281 µM (active) | GI50 [32]: 0.333 µM (active) | GI50 [33]: 1.92 µM (inactive) | GI50 [34]: 1.18 µM (inactive) | GI50 [35]: 0.76 µM (active) | GI50 [36]: 0.746 µM (active) | GI50 [37]: 1.69 µM (inactive) | GI50 [38]: 3.73 µM (inactive) | GI50 [39]: 1.13 µM (inactive) | GI50 [40]: 0.568 µM (active) | GI50 [41]: 0.9 µM (active) | GI50 [42]: 0.254 µM (active) | GI50 [43]: 1.39 µM (inactive) | GI50 [44]: 1.06 µM (active) | GI50 [45]: 1.06 µM (active) | GI50 [46]: 3.27 µM (inactive) | GI50 [47]: 2.93 µM (inactive) | GI50 [48]: 0.383 µM (active) | GI50 [49]: 0.468 µM (active) | GI50 [50]: 0.452 µM (active) | GI50 [51]: 36.1 µM (inactive) | GI50 [52]: 1.66 µM (inactive) | GI50 [53]: 1.27 µM (inactive) | GI50 [54]: 0.317 µM (active) | GI50 [55]: 0.428 µM (active)

CC(=O)N[C@@H](Cc1ccc(O)cn1)C(=O)NCc1ccc2c(c1)OCO2
GI50 [1]: > 100 µM (inactive) | GI50 [2]: > 100 µM (inactive) | GI50 [3]: > 100 µM (inactive) | GI50 [4]: > 100 µM (inactive) | GI50 [5]: > 100 µM (inactive) | GI50 [56]: > 100 µM (inactive) | GI50 [6]: > 100 µM (inactive) | GI50 [7]: > 100 µM (inactive) | GI50 [8]: > 100 µM (inactive) | GI50 [9]: > 100 µM | GI50 [57]: > 100 µM (inactive) | GI50 [10]: > 100 µM (inactive) | GI50 [11]: > 100 µM (inactive) | GI50 [12]: > 100 µM (inactive) | GI50 [13]: > 100 µM (inactive) | GI50 [58]: > 100 µM (inactive) | GI50 [14]: > 100 µM (inactive) | GI50 [15]: > 100 µM (inactive) | GI50 [16]: > 100 µM (inactive) | GI50 [17]: > 100 µM (inactive) | GI50 [18]: > 100 µM (inactive) | GI50 [19]: > 100 µM (inactive) | GI50 [20]: > 100 µM (inactive) | GI50 [21]: > 100 µM (inactive) | GI50 [22]: > 100 µM (inactive) | GI50 [23]: > 100 µM (inactive) | GI50 [24]: > 100 µM (inactive) | GI50 [26]: > 100 µM (inactive) | GI50 [59]: > 100 µM (inactive) | GI50 [27]: > 100 µM (inactive) | GI50 [28]: > 100 µM (inactive) | GI50 [29]: > 100 µM (inactive) | GI50 [30]: > 100 µM (inactive) | GI50 [31]: > 100 µM (inactive) | GI50 [32]: > 100 µM (inactive) | GI50 [33]: > 100 µM (inactive) | GI50 [34]: > 100 µM (inactive) | GI50 [35]: > 100 µM (inactive) | GI50 [36]: > 100 µM (inactive) | GI50 [37]: > 100 µM (inactive) | GI50 [38]: > 100 µM (inactive) | GI50 [39]: > 100 µM (inactive) | GI50 [40]: > 100 µM (inactive) | GI50 [41]: > 100 µM (inactive) | GI50 [42]: > 100 µM (inactive) | GI50 [43]: > 100 µM (inactive) | GI50 [44]: > 100 µM (inactive) | GI50 [45]: > 100 µM (inactive) | GI50 [46]: > 100 µM (inactive) | GI50 [47]: > 100 µM (inactive) | GI50 [48]: > 100 µM (inactive) | GI50 [50]: > 100 µM (inactive) | GI50 [51]: > 100 µM (inactive) | GI50 [52]: > 100 µM (inactive) | GI50 [53]: > 100 µM (inactive) | GI50 [54]: > 100 µM (inactive) | GI50 [55]: > 100 µM (inactive)
